Reference: patent publication US20070232681A1, “Compounds Having Crth2 Antagonist Activity” (Oxagen Limited, priority 2003, published 2007)

target: T1, CRTH2 (Homo sapiens, UniProt Q9Y5Y4); assay: [3H]PGD2 radioligand binding on CHO/CRTH2 cell membranes; conditions: competition versus [3H]PGD2, CHO/CRTH2 membranes
T1 construct: expressed in transfected cells; host or cells: Chinese Hamster Ovary (CHO) cells, G418 selected
T1 sequence (Q9Y5Y4 1-395): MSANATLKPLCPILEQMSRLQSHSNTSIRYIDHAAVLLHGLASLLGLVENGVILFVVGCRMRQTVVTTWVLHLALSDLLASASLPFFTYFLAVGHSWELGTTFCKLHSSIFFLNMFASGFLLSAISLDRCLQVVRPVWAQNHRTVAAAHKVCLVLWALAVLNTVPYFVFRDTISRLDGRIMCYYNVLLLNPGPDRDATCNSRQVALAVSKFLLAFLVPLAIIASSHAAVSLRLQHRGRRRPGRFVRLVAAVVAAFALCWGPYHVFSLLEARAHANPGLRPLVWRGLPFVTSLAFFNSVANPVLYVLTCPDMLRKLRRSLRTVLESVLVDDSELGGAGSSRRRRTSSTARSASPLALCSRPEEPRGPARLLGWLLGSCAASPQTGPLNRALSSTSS
Description: (§1) Chinese Hamster Ovary cells were transfected with CRTH2 or DP receptors (CHO/CRTH2 and CHO/DP) and were maintained in culture in a humidified atmosphere at 37° C. (5% CO2) in Minimum Essential Medium (MEM) supplemented with 10% foetal bovine serum, 2 mM glutamine, and 1 mg ml^−1 active G418. The cells were passaged every 2-3 days. For radioligand binding assay, cells were prepared in triple-layer flasks or in 175 cm^2 square flasks (for membrane preparation). For calcium mobilisation assay, cells were grown in a 96 well plate 24 h prior to the assay at a density of 80,000 cells per well.
(§2) Membranes were prepared either from CHO/CRTH2 and CHO/DP cells, or from platelets (as a source of TP receptors). CHO cells grown to confluency were washed with PBS and detached using a Versene solution (15 ml per flask). When the cells were grown in 175 cm^2 square flask, they were collected by scrapping in PBS. The cell suspensions were centrifuged (1,700 rpm, 10 min, 4° C.) and resuspended in 15 ml of buffer (1×HBSS, supplemented with 10 mM HEPES, pH 7.3). Cell suspensions were then homogenised using an Ultra Turrax at setting 4-6 for 20 s. The homogenate was centrifuged at 1,700 rpm for 10 min and the supernatant was collected and centrifuged at 20,000 rpm for 1 h at 4° C. The resulting pellet was resuspended in buffer and stored at −80° C. in aliquots of 200-500 μl. The protein concentration was determined by the method of Bradford (1976), using bovine serum albumin as standard. The platelets were washed by centrifugation at 600×g for 10 min and resuspended in ice-cold assay buffer (10 mM Tris-HCl, pH 7.4, 5 mM Glucose, 120 mM NaCl, 10 μM indomethacin) and directly centrifuged at 20,000 rpm for 30 min at 4° C. The resulting pellet was treated as described above.
(§3) [3H]PGD2 (160 Ci/mmol) binding experiments were performed on membranes prepared as described above. Assays were performed in a final volume of 100 μl of buffer (1×HBSS/HEPES 10 mM, pH 7.3). Cell membranes (15 μg). Cell membranes […] were preincubated at room temperature with varying concentration of competing ligand for 15 min. [3H]PGD2 ([…]) was then added and the incubation continued for a further one hour at room temperature. The reaction was terminated by the addition of 200 μl ice-cold assay buffer to each well, followed by rapid filtration through Whatman GF/B glass fibre filters using a Unifilter Cell harvester (PerkinElmer Life Sciences) and six washes of 300 μl of ice-cold buffer. The Unifilter plates were dried at room temperature for at least 1 h and the radioactivity retained on the filters was determined on a Beta Trilux counter (PerkinElmer Life Sciences), following addition of 40 μl of Optiphase Hi-Safe 3 (Wallac) liquid scintillation. Non specific binding was defined in the presence of […] unlabelled PGD2. Assays were performed in duplicate.

| Structure (SMILES) | Ki |
| --- | --- |
| CCCCS(=O)(=O)c1c(C)n(CC(=O)O)c2ccc(F)cc12 [Compound 1, [3-(Butane-1-sulfonyl)-5-fluoro-2-methyl-indol-1-yl]-acetic acid] | 192 nM |
| Cc1c(S(=O)(=O)CC(=O)O)c2cc(F)ccc2n1CC(=O)O [Compound 3, (3-Carboxymethanesulfonyl-5-fluoro-2-methyl-indol-1-yl)-acetic acid] | 2000 nM |
| Cc1c(S(=O)(=O)CC(N)=O)c2cc(F)ccc2n1CC(=O)O [Compound 4, (3-Carbamoylmethanesulfonyl-5-fluoro-2-methyl-indol-1-yl)-acetic acid] | 2300 nM |
| Cc1c(S(=O)(=O)CCS(C)(=O)=O)c2cc(F)ccc2n1CC(=O)O [Compound 5, [5-Fluoro-3-(2-methanesulfonyl-ethanesulfonyl)-2-methyl-indol-1-yl]-acetic acid] | 89 nM |
| Cc1c(S(=O)(=O)c2nc3ccccc3s2)c2cc(F)ccc2n1CC(=O)O [Compound 6, [3-(Benzothiazole-2-sulfonyl)-5-fluoro-2-methyl-indol-1-yl]-acetic acid] | 209 nM |
| Cc1c(S(=O)(=O)c2ccc3ccccc3n2)c2cc(F)ccc2n1CC(=O)O [Compound 8, [5-Fluoro-2-methyl-3-(quinoline-2-sulfonyl)-indol-1-yl]-acetic acid] | 249 nM |
| Cc1c(S(=O)(=O)c2cccc3cccnc23)c2cc(F)ccc2n1CC(=O)O [Compound 9, [5-Fluoro-2-methyl-3-(quinolin-8-ylsulfonyl)-indol-1-yl]-acetic acid] | 254 nM |
| Cc1c(S(=O)(=O)Nc2ccc(F)cc2)c2cc(F)ccc2n1CC(=O)O [Compound 13, [3-(4-Fluoro-phenylsulfamoyl)-5-fluoro-2-methyl-indol-1-yl]-acetic acid] | 182 nM |

The next compounds have a lower Ki than those just listed; values first:

| Ki | Structure (SMILES) |
| --- | --- |
| 75 nM | Cc1c(S(=O)(=O)c2ccc(-c3ccccc3)cc2)c2cc(F)ccc2n1CC(=O)O [Compound 2] |
| 54 nM | Cc1c([S+]([O-])c2nc3ccccc3s2)c2cc(F)ccc2n1CC(=O)O (centres unmarked) [Compound 7, [3-(Benzothiazole-2-sulfinyl)-5-fluoro-2-methyl-indol-1-yl]-acetic acid] |
| 51 nM | Cc1c(S(=O)(=O)Nc2ccc(Cl)cc2)c2cc(F)ccc2n1CC(=O)O [Compound 11, [3-(4-Chloro-phenylsulfamoyl)-5-fluoro-2-methyl-indol-1-yl]-acetic acid] |
| 45 nM | Cc1c(S(=O)(=O)Nc2cccc(Cl)c2)c2cc(F)ccc2n1CC(=O)O [Compound 12, [3-(3-Chloro-phenylsulfamoyl)-5-fluoro-2-methyl-indol-1-yl]-acetic acid] |
| 6 nM | Cc1c(S(=O)(=O)Cc2ccccc2)c2cc(F)ccc2n1CC(=O)O [Compound 10, (5-Fluoro-2-methyl-3-phenylmethanesulfonyl-1H-indol-1-yl)-acetic acid] |

target: T1, CRTH2; assay: Calcium mobilisation assay in CHO/CRTH2 cells (PGD2-induced calcium flux); type: cell-based; conditions: inhibition of PGD2-induced calcium flux, read-out: CRTH2 Ca flux IC50
Description: as §1
Cells were seeded onto poly-D-lysine coated 96-well plates at a density of 80,000 cells per well and incubated at 37° C. overnight to allow the cells to adhere. Cells were washed twice with HBSS and incubated for 1 h at 37° C. in 100 μl HBSS and 100 μl calcium-3-dye (Molecular Devices) solution, supplemented with 4 mM probenecid. Changes in fluorescence were monitored over a 50 s time course with agonist addition at 17s using a Flexstation (Molecular Devices).

| Structure (SMILES) | IC50 |
| --- | --- |
| CCCCS(=O)(=O)c1c(C)n(CC(=O)O)c2ccc(F)cc12 [Compound 1, [3-(Butane-1-sulfonyl)-5-fluoro-2-methyl-indol-1-yl]-acetic acid] | 280 nM |
| Cc1c(S(=O)(=O)CCS(C)(=O)=O)c2cc(F)ccc2n1CC(=O)O [Compound 5, [5-Fluoro-3-(2-methanesulfonyl-ethanesulfonyl)-2-methyl-indol-1-yl]-acetic acid] | 268 nM |
| Cc1c(S(=O)(=O)c2nc3ccccc3s2)c2cc(F)ccc2n1CC(=O)O [Compound 6, [3-(Benzothiazole-2-sulfonyl)-5-fluoro-2-methyl-indol-1-yl]-acetic acid] | 345 nM |
| Cc1c(S(=O)(=O)c2ccc3ccccc3n2)c2cc(F)ccc2n1CC(=O)O [Compound 8, [5-Fluoro-2-methyl-3-(quinoline-2-sulfonyl)-indol-1-yl]-acetic acid] | 330 nM |
| Cc1c(S(=O)(=O)Nc2ccc(F)cc2)c2cc(F)ccc2n1CC(=O)O [Compound 13, [3-(4-Fluoro-phenylsulfamoyl)-5-fluoro-2-methyl-indol-1-yl]-acetic acid] | 1650 nM |

The next lines start with the values.

| IC50 | Structure (SMILES) |
| --- | --- |
| 163 nM | Cc1c(S(=O)(=O)c2ccc(-c3ccccc3)cc2)c2cc(F)ccc2n1CC(=O)O [Compound 2] |
| 163 nM | Cc1c([S+]([O-])c2nc3ccccc3s2)c2cc(F)ccc2n1CC(=O)O (centres unmarked) [Compound 7, [3-(Benzothiazole-2-sulfinyl)-5-fluoro-2-methyl-indol-1-yl]-acetic acid] |
| 197 nM | Cc1c(S(=O)(=O)Nc2ccc(Cl)cc2)c2cc(F)ccc2n1CC(=O)O [Compound 11, [3-(4-Chloro-phenylsulfamoyl)-5-fluoro-2-methyl-indol-1-yl]-acetic acid] |
| 82 nM | Cc1c(S(=O)(=O)Nc2cccc(Cl)c2)c2cc(F)ccc2n1CC(=O)O [Compound 12, [3-(3-Chloro-phenylsulfamoyl)-5-fluoro-2-methyl-indol-1-yl]-acetic acid] |
| 79 nM | Cc1c(S(=O)(=O)Cc2ccccc2)c2cc(F)ccc2n1CC(=O)O [Compound 10, (5-Fluoro-2-methyl-3-phenylmethanesulfonyl-1H-indol-1-yl)-acetic acid] |

target: T2, DP receptor (Homo sapiens, UniProt Q13258); assay: [3H]PGD2 radioligand binding on CHO/DP cell membranes; conditions: competition versus [3H]PGD2, CHO/DP membranes
T2 construct: expressed in transfected cells; host or cells: Chinese Hamster Ovary (CHO) cells, G418 selected
T2 sequence (Q13258 1-359): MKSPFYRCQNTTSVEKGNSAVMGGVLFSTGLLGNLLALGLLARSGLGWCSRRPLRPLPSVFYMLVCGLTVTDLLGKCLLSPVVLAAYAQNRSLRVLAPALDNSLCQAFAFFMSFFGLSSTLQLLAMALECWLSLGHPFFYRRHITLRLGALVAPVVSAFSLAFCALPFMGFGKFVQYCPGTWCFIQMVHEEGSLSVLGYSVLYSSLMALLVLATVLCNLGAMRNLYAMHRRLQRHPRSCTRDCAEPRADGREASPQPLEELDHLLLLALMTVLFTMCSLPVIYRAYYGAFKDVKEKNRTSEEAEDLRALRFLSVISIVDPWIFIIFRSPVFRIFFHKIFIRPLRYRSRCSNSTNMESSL
Description: as §1, §2, §3

| Structure (SMILES) | Ki |
| --- | --- |
| CCCCS(=O)(=O)c1c(C)n(CC(=O)O)c2ccc(F)cc12 [Compound 1, [3-(Butane-1-sulfonyl)-5-fluoro-2-methyl-indol-1-yl]-acetic acid] | > 10000 nM |
| Cc1c(S(=O)(=O)CCS(C)(=O)=O)c2cc(F)ccc2n1CC(=O)O [Compound 5, [5-Fluoro-3-(2-methanesulfonyl-ethanesulfonyl)-2-methyl-indol-1-yl]-acetic acid] | > 10000 nM |
| Cc1c(S(=O)(=O)c2cccc3cccnc23)c2cc(F)ccc2n1CC(=O)O [Compound 9, [5-Fluoro-2-methyl-3-(quinolin-8-ylsulfonyl)-indol-1-yl]-acetic acid] | > 10000 nM |

Now from value to compound:

| Ki | Structure (SMILES) |
| --- | --- |
| > 10000 nM | Cc1c(S(=O)(=O)c2ccc(-c3ccccc3)cc2)c2cc(F)ccc2n1CC(=O)O [Compound 2] |
| > 10000 nM | Cc1c(S(=O)(=O)Nc2ccc(Cl)cc2)c2cc(F)ccc2n1CC(=O)O [Compound 11, [3-(4-Chloro-phenylsulfamoyl)-5-fluoro-2-methyl-indol-1-yl]-acetic acid] |
| > 10000 nM | Cc1c(S(=O)(=O)Nc2cccc(Cl)c2)c2cc(F)ccc2n1CC(=O)O [Compound 12, [3-(3-Chloro-phenylsulfamoyl)-5-fluoro-2-methyl-indol-1-yl]-acetic acid] |
